Experimental findings from ChEMBL document CHEMBL4680222, “Sensitive fluorogenic substrates for sirtuin deacylase inhibitor discovery” (Eur J Med Chem, 2020) are described below.

In assay [1] the target is T1, NAD-dependent protein deacetylase sirtuin-7 (Homo sapiens) (UniProt Q9NRC8).
T1 sequence (whole entry): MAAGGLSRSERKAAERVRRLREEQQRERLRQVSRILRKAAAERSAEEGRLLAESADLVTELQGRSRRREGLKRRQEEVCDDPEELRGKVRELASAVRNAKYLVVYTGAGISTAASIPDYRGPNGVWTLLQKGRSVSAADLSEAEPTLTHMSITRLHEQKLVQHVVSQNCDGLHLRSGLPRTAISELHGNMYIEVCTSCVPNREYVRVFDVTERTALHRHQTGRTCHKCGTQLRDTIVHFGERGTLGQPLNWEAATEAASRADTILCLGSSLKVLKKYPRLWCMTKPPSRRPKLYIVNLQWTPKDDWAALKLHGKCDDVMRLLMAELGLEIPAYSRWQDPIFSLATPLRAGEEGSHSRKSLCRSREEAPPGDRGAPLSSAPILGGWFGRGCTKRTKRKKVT
The assay can be described thus: Substrate activity at human N-terminal His-tagged SIRT7 (68 to 354 residues) expressed in Escherichia coli at 0.5 uM measured after 2 hrs in presence of NAD+ and trypsin by fluorescence assay.

Assay [2] deals with NAD-dependent protein deacylase sirtuin-6 (Homo sapiens) (UniProt Q8N6T7). Description: Substrate activity at human N-terminal His-tagged SIRT6 (1 to 355 residues) expressed in Escherichia coli at 0.5 uM measured after 2 hrs in presence of NAD+ and trypsin by fluorescence assay.
Chain of NAD-dependent protein deacylase sirtuin-6 (Homo sapiens) (Q8N6T7 whole entry, the tested form may be a part): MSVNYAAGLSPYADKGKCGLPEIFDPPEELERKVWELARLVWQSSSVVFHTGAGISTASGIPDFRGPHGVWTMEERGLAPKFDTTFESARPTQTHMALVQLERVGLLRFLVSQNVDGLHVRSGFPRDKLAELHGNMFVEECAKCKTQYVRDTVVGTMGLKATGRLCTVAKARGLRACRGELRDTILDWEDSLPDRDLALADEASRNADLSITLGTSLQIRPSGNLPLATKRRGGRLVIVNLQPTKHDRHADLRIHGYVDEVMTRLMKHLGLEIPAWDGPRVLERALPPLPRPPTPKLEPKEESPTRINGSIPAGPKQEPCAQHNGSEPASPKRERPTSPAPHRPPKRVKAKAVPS
Assay [3] concerns the target NAD-dependent protein deacylase sirtuin-5, mitochondrial (Homo sapiens) (UniProt Q9NXA8). The assay can be described thus: Substrate activity at human N-terminal His-tagged SIRT5 (34 to 302 residues) expressed in Escherichia coli at 0.5 uM measured after 2 hrs in presence of NAD+ and trypsin by fluorescence assay.
The target in assay [4] is T2, NAD-dependent protein deacetylase sirtuin-3, mitochondrial (Homo sapiens) (UniProt Q9NTG7).
T2 sequence (whole entry): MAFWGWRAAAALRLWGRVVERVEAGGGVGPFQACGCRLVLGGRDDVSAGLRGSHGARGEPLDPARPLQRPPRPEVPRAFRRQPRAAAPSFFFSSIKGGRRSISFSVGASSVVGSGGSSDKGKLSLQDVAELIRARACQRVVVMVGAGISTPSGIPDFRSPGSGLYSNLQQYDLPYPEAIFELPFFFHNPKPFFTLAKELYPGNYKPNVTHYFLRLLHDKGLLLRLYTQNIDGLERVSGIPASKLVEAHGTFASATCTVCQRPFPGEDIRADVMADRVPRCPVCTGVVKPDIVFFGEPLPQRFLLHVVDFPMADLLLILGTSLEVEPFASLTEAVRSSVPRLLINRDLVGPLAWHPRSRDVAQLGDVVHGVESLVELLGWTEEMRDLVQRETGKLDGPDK
Description: Substrate activity at human N-terminal His-tagged SIRT3 (122 to 391 residues) expressed in Escherichia coli at 0.5 uM measured after 2 hrs in presence of NAD+ and trypsin by fluorescence assay.

For assay [5], the target named is T3, NAD-dependent protein deacetylase sirtuin-2 (Homo sapiens) (UniProt Q8IXJ6).
T3 sequence (whole entry): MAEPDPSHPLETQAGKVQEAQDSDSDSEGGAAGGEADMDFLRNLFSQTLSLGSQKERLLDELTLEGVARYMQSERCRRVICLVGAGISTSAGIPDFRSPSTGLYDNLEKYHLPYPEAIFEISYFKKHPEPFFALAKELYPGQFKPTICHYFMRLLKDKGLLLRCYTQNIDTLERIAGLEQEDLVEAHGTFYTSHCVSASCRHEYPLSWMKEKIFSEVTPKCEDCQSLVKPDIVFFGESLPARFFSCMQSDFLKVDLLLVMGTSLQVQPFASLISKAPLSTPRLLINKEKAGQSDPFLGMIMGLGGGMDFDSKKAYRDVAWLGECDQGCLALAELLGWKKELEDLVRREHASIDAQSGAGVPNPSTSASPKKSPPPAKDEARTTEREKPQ
Description: Substrate activity at human N-terminal His-tagged SIRT2 (56 to 356 residues) expressed in Escherichia coli at 0.5 uM measured after 2 hrs in presence of NAD+ and trypsin by fluorescence assay.

The target in assay [6] is T4, NAD-dependent protein deacetylase sirtuin-1 (Homo sapiens) (UniProt Q96EB6).
T4 sequence (whole entry): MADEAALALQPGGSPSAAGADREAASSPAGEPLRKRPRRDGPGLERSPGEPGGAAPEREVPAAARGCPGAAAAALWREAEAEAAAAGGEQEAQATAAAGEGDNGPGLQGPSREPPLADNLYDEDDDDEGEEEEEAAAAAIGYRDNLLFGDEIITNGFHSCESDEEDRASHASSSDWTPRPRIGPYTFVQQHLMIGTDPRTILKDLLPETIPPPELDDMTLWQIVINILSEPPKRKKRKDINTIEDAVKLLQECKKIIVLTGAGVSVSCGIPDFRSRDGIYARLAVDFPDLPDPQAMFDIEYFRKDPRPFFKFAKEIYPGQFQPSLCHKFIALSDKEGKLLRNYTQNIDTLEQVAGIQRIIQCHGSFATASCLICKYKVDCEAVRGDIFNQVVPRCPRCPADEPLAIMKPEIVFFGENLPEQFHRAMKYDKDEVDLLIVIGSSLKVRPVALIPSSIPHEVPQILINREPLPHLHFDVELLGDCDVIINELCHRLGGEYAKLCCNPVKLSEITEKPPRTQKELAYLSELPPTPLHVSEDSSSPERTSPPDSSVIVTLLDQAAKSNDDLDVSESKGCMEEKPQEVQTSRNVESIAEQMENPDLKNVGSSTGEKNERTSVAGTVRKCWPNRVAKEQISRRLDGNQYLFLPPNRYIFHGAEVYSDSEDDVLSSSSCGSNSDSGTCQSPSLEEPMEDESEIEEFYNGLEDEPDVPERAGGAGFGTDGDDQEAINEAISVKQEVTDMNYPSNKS
The assay can be described thus: Substrate activity at human N-terminal His-tagged SIRT1 (183 to 664 residues) expressed in Escherichia coli at 0.5 uM measured after 2 hrs in presence of NAD+ and trypsin by fluorescence assay.

For assay [7], the target named is T1, NAD-dependent protein deacetylase sirtuin-7 (Homo sapiens). Description: Substrate activity at human N-terminal His-tagged SIRT7 (68 to 354 residues) expressed in Escherichia coli at 5 uM measured after 2 hrs in presence of NAD+ and trypsin by fluorescence assay.
Assay [8] addresses NAD-dependent protein deacylase sirtuin-6 (Homo sapiens) (UniProt Q8N6T7). The assay can be described thus: Substrate activity at human N-terminal His-tagged SIRT6 (1 to 355 residues) expressed in Escherichia coli at 5 uM measured after 2 hrs in presence of NAD+ and trypsin by fluorescence assay.
The target in assay [9] is NAD-dependent protein deacylase sirtuin-5, mitochondrial (Homo sapiens) (UniProt Q9NXA8). Description: Substrate activity at human N-terminal His-tagged SIRT5 (34 to 302 residues) expressed in Escherichia coli at 5 uM measured after 2 hrs in presence of NAD+ and trypsin by fluorescence assay.
Chain of NAD-dependent protein deacylase sirtuin-5, mitochondrial (Homo sapiens) (Q9NXA8 37-310 limits assumed): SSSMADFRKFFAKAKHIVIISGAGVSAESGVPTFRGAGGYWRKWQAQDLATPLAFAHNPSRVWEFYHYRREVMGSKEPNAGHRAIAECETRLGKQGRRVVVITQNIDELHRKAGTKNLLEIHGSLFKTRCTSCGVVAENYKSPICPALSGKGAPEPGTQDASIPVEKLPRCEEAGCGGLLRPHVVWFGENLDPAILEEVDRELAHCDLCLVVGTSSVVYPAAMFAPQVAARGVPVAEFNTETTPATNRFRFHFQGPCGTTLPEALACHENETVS
Assay [10] concerns the target T2, NAD-dependent protein deacetylase sirtuin-3, mitochondrial (Homo sapiens). Description: Substrate activity at human N-terminal His-tagged SIRT3 (122 to 391 residues) expressed in Escherichia coli at 5 uM measured after 2 hrs in presence of NAD+ and trypsin by fluorescence assay.
Assay [11] has as its target T3, NAD-dependent protein deacetylase sirtuin-2 (Homo sapiens). The assay can be described thus: Substrate activity at human N-terminal His-tagged SIRT2 (56 to 356 residues) expressed in Escherichia coli at 5 uM measured after 2 hrs in presence of NAD+ and trypsin by fluorescence assay.
For assay [12], the target named is T4, NAD-dependent protein deacetylase sirtuin-1 (Homo sapiens). Description: Substrate activity at human N-terminal His-tagged SIRT1 (183 to 664 residues) expressed in Escherichia coli at 5 uM measured after 2 hrs in presence of NAD+ and trypsin by fluorescence assay.
The target of assay [13] is T1, NAD-dependent protein deacetylase sirtuin-7 (Homo sapiens). Description: Substrate activity at human N-terminal His-tagged SIRT7 (68 to 354 residues) expressed in Escherichia coli at 50 uM measured after 2 hrs in presence of NAD+ and trypsin by fluorescence assay.
The target of assay [14] is NAD-dependent protein deacylase sirtuin-6 (Homo sapiens) (UniProt Q8N6T7). The assay can be described thus: Substrate activity at human N-terminal His-tagged SIRT6 (1 to 355 residues) expressed in Escherichia coli at 50 uM measured after 2 hrs in presence of NAD+ and trypsin by fluorescence assay.
The target in assay [15] is NAD-dependent protein deacylase sirtuin-5, mitochondrial (Homo sapiens) (UniProt Q9NXA8). The assay can be described thus: Substrate activity at human N-terminal His-tagged SIRT5 (34 to 302 residues) expressed in Escherichia coli at 50 uM measured after 2 hrs in presence of NAD+ and trypsin by fluorescence assay.
For assay [16], the target named is T2, NAD-dependent protein deacetylase sirtuin-3, mitochondrial (Homo sapiens). Description: Substrate activity at human N-terminal His-tagged SIRT3 (122 to 391 residues) expressed in Escherichia coli at 50 uM measured after 2 hrs in presence of NAD+ and trypsin by fluorescence assay.
In assay [17] the target is T3, NAD-dependent protein deacetylase sirtuin-2 (Homo sapiens). Description: Substrate activity at human N-terminal His-tagged SIRT2 (56 to 356 residues) expressed in Escherichia coli at 50 uM measured after 2 hrs in presence of NAD+ and trypsin by fluorescence assay.
Assay [18] deals with T4, NAD-dependent protein deacetylase sirtuin-1 (Homo sapiens). Description: Substrate activity at human N-terminal His-tagged SIRT1 (183 to 664 residues) expressed in Escherichia coli at 50 uM measured after 2 hrs in presence of NAD+ and trypsin by fluorescence assay.
The target in assay [19] is T3, NAD-dependent protein deacetylase sirtuin-2 (Homo sapiens). Description: Substrate activity at human N-terminal His-tagged SIRT2 (56 to 356 residues) expressed in Escherichia coli at 5 uM measured after 1 hr in presence of NAD+ and trypsin by fluorescence assay.

Active and inactive are the calls of the source. The rule behind the calls is not given here. Where a SMILES comes first, the peptide text is derived from it. The star is where a group is joined. AMC = Cc1cc(=O)oc2cc(N*)ccc12; Decanoyl = CCCCCCCCCC(=O)*

In the case of `CCCCCCCCCC(=O)NCCCC[C@H](NC(=O)[C@H](CC(=O)O)NC(=O)[C@@H](NC(=O)[C@H](CCC(=O)O)NC(C)=O)[C@@H](C)O)C(=O)Nc1ccc2c(C)cc(=O)oc2c1` (Ac-ETDK(Decanoyl)-{AMC}), the Activity in [1] turned out to be 0.28 RFU; in assay [2], 0.39 RFU; in [3], 0.3 RFU; in assay [4], 0.51 RFU; in assay [5] it was 2.97 RFU; in assay [6], 2.97 RFU. The Activity in [7] was found to be 0.38 RFU; in assay [8] it was 0.33 RFU; in assay [9], 0.42 RFU; in assay [10], 0.66 RFU; in [11] it was 20.6 RFU; in assay [12] it was 1.37 RFU. The Activity in [13] amounted to 0.73 RFU; in assay [14] it was 0.73 RFU; in [15], 1.24 RFU; in [16], 1.86 RFU; in assay [17], 79.9 RFU; in [18], 4.13 RFU. The outcome in assay [19] was Active.
